How the values were obtained:
[1] = Form stability at high temperature and humidity (uncovered vial in stability chamber, then PXRD / 1H NMR analysis); format: physicochemical; set-up: key to Form stability result (PXRD): NC: no change in PXRD; settings: 40° C./75% RH
Procedure: PXRD diffractograms were recorded on a Bruker D8 Discover powder X-ray diffractometer (Bruker AXS LLC, Karlsruhe, Germany). The sample holder was oscillated along X and Y axes during the measurement. The generator was a Incoatec Microfocus Source (IμS) Cu tube (λ=1.54060 Å) with a voltage of 50 kV and current of 1.00 mA, using a divergence slit of 0.3 mm and collimator of 0.3 mm. For each sample, one frame was collected using a still scan with a PILATUS3 R 100K-A detector at the distance of 154.72 mm from the sample. Raw data were evaluated using the program DIFFRAC.EVA (Bruker AXS LLC, Karlsruhe, Germany).
Samples were kept in an uncovered vial in a stability chamber maintained at 40° C./75% relative humidity (RH) for the specified period prior to PXRD analysis to evaluate form stability.

[2] = cited from earlier work
[3] = cited from earlier work; remark: listed apart in the source
[4] = cited from earlier work; remark: listed apart in the source

| Structure (SMILES) | Form stability result (PXRD) ([1]; 1 month) | Form stability result (PXRD) ([1]; 3 months) | further results |
| --- | --- | --- | --- |
| COC(=O)c1ccc2c(c1)NC(=O)C2=C(Nc1ccc(N(C)C(=O)CN2CCN(C)CC2)cc1)c1ccccc1.O=C(O)CCCC(=O)O [Nintedanib glutarate Form APO-I, nintedanib glutarate] | NC |  |  |
| CC(=O)CCC(=O)O.COC(=O)c1ccc2c(c1)NC(=O)C2=C(Nc1ccc(N(C)C(=O)CN2CCN(C)CC2)cc1)c1ccccc1 [Nintedanib levulinate Form APO-I, nintedanib levulinate] |  | NC |  |
| COC(=O)c1ccc2c(c1)NC(=O)C2=C(Nc1ccc(N(C)C(=O)CN2CCN(C)CC2)cc1)c1ccccc1.O=C1NS(=O)(=O)c2ccccc21 [Nintedanib saccharinate Form APO-I, nintedanib saccharinate] | NC |  |  |
| CC1=CC(=O)NS(=O)(=O)O1.COC(=O)c1ccc2c(c1)NC(=O)C2=C(Nc1ccc(N(C)C(=O)CN2CCN(C)CC2)cc1)c1ccccc1 [Nintedanib acesulfamate Form APO-I, nintedanib acesulfamate] | NC |  |  |
| CC1=CC(=O)NS(=O)(=O)O1.CC1=CC(=O)NS(=O)(=O)O1.COC(=O)c1ccc2c(c1)NC(=O)C2=C(Nc1ccc(N(C)C(=O)CN2CCN(C)CC2)cc1)c1ccccc1 [Nintedanib diacesulfamate Form APO-I, nintedanib diacesulfamate] |  | NC |  |
| COC(=O)c1ccc2c(c1)NC(=O)/C2=C(\Nc1ccc(N(C)C(=O)CN2CCN(C)CC2)cc1)c1ccccc1 [nintedanib esylate, (3Z)-2,3-dihydro-3-[[[4-[methyl[(4-methyl-1-piperazinyl)acetyl]amino]phenyl]amino]phenylmethylene]-2-oxo-1H-indole-6-carboxylic acid methyl ester] |  |  | Solubility in neutral aqueous conditions [2]: poor; Chemical stability in the presence of water [3]: undergo hydrolysis; Bioavailability in humans [4]: low |
| COC(=O)c1ccc2c(c1)NC(=O)C2=C(Nc1ccc(N(C)C(=O)CN2CCN(C)CC2)cc1)c1ccccc1.O=C(O)CNC(=O)c1ccccc1 [Nintedanib hippurate Form APO-I, nintedanib hippurate] |  | NC | 1H NMR spectroscopy following storage ([1]; after storage (3 months per Table 8)): no change |

From US20230093124A1, “Salts of Nintedanib and Crystalline Forms Thereof” (Apotex Inc., priority 2021, published 2023)
